# Experimental data from ChEMBL document CHEMBL3865816, “Design, synthesis and biological evaluation of novel azaspiro analogs of linezolid as antibacterial and antitubercular agents” (Eur J Med Chem, 2016).
# How the values were obtained:
# Format in all cases: functional
# Pseudomonas aeruginosa [1] = test: Antibacterial activity against Pseudomonas aeruginosa NCIM 2036 measured after 8 hrs by spectrophotometric method; details: NCIM 2036, 8 h
# Staphylococcus aureus [2] = test: Antibacterial activity against Staphylococcus aureus NCIM 2079 measured after 12 hrs by spectrophotometric method; details: NCIM 2079, 12 h
# Escherichia coli [3] = test: Antibacterial activity against Escherichia coli NCIM 2688 measured after 8 hrs by spectrophotometric method; details: NCIM 2688, 8 h
# Bacillus subtilis [4] = test: Antibacterial activity against Bacillus subtilis NCIM 2010 measured after 12 hrs by spectrophotometric method; details: NCIM 2010, 12 h
# [5] = test system: Mycobacterium tuberculosis; test: Antitubercular activity against dormant stage Mycobacterium tuberculosis H37Ra measured after 12 days by XTT assay; details: 288 h
# Escherichia coli [6] = test: Antibacterial activity against Escherichia coli NCIM 2688 at 30 ug/ml measured after 8 hrs by spectrophotometric method; details: NCIM 2688, 8 h
# Escherichia coli [7] = test: Antibacterial activity against Escherichia coli NCIM 2688 at 10 ug/ml measured after 8 hrs by spectrophotometric method; details: NCIM 2688, 8 h
# Escherichia coli [8] = test: Antibacterial activity against Escherichia coli NCIM 2688 at 3 ug/ml measured after 8 hrs by spectrophotometric method; details: NCIM 2688, 8 h
# Pseudomonas aeruginosa [9] = test: Antibacterial activity against Pseudomonas aeruginosa NCIM 2036 at 30 ug/ml measured after 8 hrs by spectrophotometric method; details: NCIM 2036, 8 h
# Pseudomonas aeruginosa [10] = test: Antibacterial activity against Pseudomonas aeruginosa NCIM 2036 at 10 ug/ml measured after 8 hrs by spectrophotometric method; details: NCIM 2036, 8 h
# Pseudomonas aeruginosa [11] = test: Antibacterial activity against Pseudomonas aeruginosa NCIM 2036 at 3 ug/ml measured after 8 hrs by spectrophotometric method; details: NCIM 2036, 8 h
# Staphylococcus aureus [12] = test: Antibacterial activity against Staphylococcus aureus NCIM 2079 at 30 ug/ml measured after 12 hrs by spectrophotometric method; details: NCIM 2079, 12 h
# Staphylococcus aureus [13] = test: Antibacterial activity against Staphylococcus aureus NCIM 2079 at 10 ug/ml measured after 12 hrs by spectrophotometric method; details: NCIM 2079, 12 h
# Staphylococcus aureus [14] = test: Antibacterial activity against Staphylococcus aureus NCIM 2079 at 3 ug/ml measured after 12 hrs by spectrophotometric method; details: NCIM 2079, 12 h
# Bacillus subtilis [15] = test: Antibacterial activity against Bacillus subtilis NCIM 2010 at 30 ug/ml measured after 12 hrs by spectrophotometric method; details: NCIM 2010, 12 h
# Bacillus subtilis [16] = test: Antibacterial activity against Bacillus subtilis NCIM 2010 at 10 ug/ml measured after 12 hrs by spectrophotometric method; details: NCIM 2010, 12 h
# Bacillus subtilis [17] = test: Antibacterial activity against Bacillus subtilis NCIM 2010 at 3 ug/ml measured after 12 hrs by spectrophotometric method; details: NCIM 2010, 12 h
# [18] = test system: Mycobacterium tuberculosis; test: Antitubercular activity against dormant stage Mycobacterium tuberculosis H37Ra at 30 ug/ml measured after 12 days by XTT assay; details: 288 h
# [19] = test system: Mycobacterium tuberculosis; test: Antitubercular activity against dormant stage Mycobacterium tuberculosis H37Ra at 10 ug/ml measured after 12 days by XTT assay; details: 288 h
# [20] = test system: Mycobacterium tuberculosis; test: Antitubercular activity against dormant stage Mycobacterium tuberculosis H37Ra at 3 ug/ml measured after 12 days by XTT assay; details: 288 h
# [21] = test system: Mycobacterium tuberculosis; test: Antitubercular activity against active stage Mycobacterium tuberculosis H37Ra measured after 8 days by XTT assay; details: 192 h
smiles,measurement,setting,value
OC1(CNc2ccc(N3CCOCC3)c(F)c2)CCN(Cc2ccccc2)C1 (configuration not stated),IC50,Pseudomonas aeruginosa [1],> 100 µg/mL
same,MIC,Pseudomonas aeruginosa [1],> 100 µg/mL
same,IC50,Staphylococcus aureus [2],> 100 µg/mL
same,MIC,Staphylococcus aureus [2],> 100 µg/mL
same,IC50,Escherichia coli [3],> 100 µg/mL
same,MIC,Escherichia coli [3],> 100 µg/mL
same,IC50,Bacillus subtilis [4],> 100 µg/mL
same,MIC,Bacillus subtilis [4],> 100 µg/mL
same,IC50,[5],> 100 µg/mL
same,MIC,[5],> 100 µg/mL
same,inhibition at 30 µg/mL,Escherichia coli [6],53.9%
same,inhibition at 10 µg/mL,Escherichia coli [7],49.6%
same,inhibition at 3 µg/mL,Escherichia coli [8],45%
same,inhibition at 30 µg/mL,Pseudomonas aeruginosa [9],63.7%
same,inhibition at 10 µg/mL,Pseudomonas aeruginosa [10],37.1%
same,inhibition at 3 µg/mL,Pseudomonas aeruginosa [11],14.4%
same,inhibition at 30 µg/mL,Staphylococcus aureus [12],53.2%
same,inhibition at 10 µg/mL,Staphylococcus aureus [13],48.9%
same,inhibition at 3 µg/mL,Staphylococcus aureus [14],44.3%
same,inhibition at 30 µg/mL,Bacillus subtilis [15],52.2%
same,inhibition at 10 µg/mL,Bacillus subtilis [16],47.1%
same,inhibition at 3 µg/mL,Bacillus subtilis [17],44.7%
same,inhibition at 30 µg/mL,[18],5.62%
same,inhibition at 10 µg/mL,[19],6.11%
same,inhibition at 3 µg/mL,[20],8%
CC(=O)NC[C@H]1CN(c2ccc(N3CC4(COC4)C3)c(F)c2)C(=O)O1,IC50,Pseudomonas aeruginosa [1],0.58 µg/mL
same,MIC,Pseudomonas aeruginosa [1],6.4 µg/mL
same,IC50,Staphylococcus aureus [2],0.53 µg/mL
same,MIC,Staphylococcus aureus [2],2.9 µg/mL
same,IC50,Escherichia coli [3],> 100 µg/mL
same,MIC,Escherichia coli [3],> 100 µg/mL
same,IC50,Bacillus subtilis [4],0.65 µg/mL
same,MIC,Bacillus subtilis [4],3.46 µg/mL
same,IC50,[21],1.56 µg/mL
same,MIC,[21],2.55 µg/mL
same,IC50,[5],2.07 µg/mL
same,MIC,[5],3.1 µg/mL
same,inhibition at 30 µg/mL,Escherichia coli [6],28.8%
same,inhibition at 10 µg/mL,Escherichia coli [7],17.4%
same,inhibition at 3 µg/mL,Escherichia coli [8],3.06%
same,inhibition at 30 µg/mL,Pseudomonas aeruginosa [9],98.5%
same,inhibition at 10 µg/mL,Pseudomonas aeruginosa [10],91.9%
same,inhibition at 3 µg/mL,Pseudomonas aeruginosa [11],85.5%
same,inhibition at 30 µg/mL,Staphylococcus aureus [12],99.5%
same,inhibition at 10 µg/mL,Staphylococcus aureus [13],91.8%
same,inhibition at 3 µg/mL,Staphylococcus aureus [14],90.4%
same,inhibition at 30 µg/mL,Bacillus subtilis [15],100%
same,inhibition at 10 µg/mL,Bacillus subtilis [16],95.4%
same,inhibition at 3 µg/mL,Bacillus subtilis [17],88.8%
same,inhibition at 30 µg/mL,[18],95.2%
same,inhibition at 10 µg/mL,[19],94.7%
same,inhibition at 3 µg/mL,[20],15.1%
O=C1OC2(CCN(Cc3ccccc3)C2)CN1c1ccc(N2CCOCC2)c(F)c1 (configuration not stated),IC50,Pseudomonas aeruginosa [1],> 100 µg/mL
same,MIC,Pseudomonas aeruginosa [1],> 100 µg/mL
same,IC50,Staphylococcus aureus [2],> 100 µg/mL
same,MIC,Staphylococcus aureus [2],> 100 µg/mL
same,IC50,Escherichia coli [3],> 100 µg/mL
same,MIC,Escherichia coli [3],> 100 µg/mL
same,IC50,Bacillus subtilis [4],> 100 µg/mL
same,MIC,Bacillus subtilis [4],> 100 µg/mL
same,IC50,[5],> 100 µg/mL
same,MIC,[5],> 100 µg/mL
same,inhibition at 30 µg/mL,Escherichia coli [6],23.9%
same,inhibition at 10 µg/mL,Escherichia coli [7],23.7%
same,inhibition at 3 µg/mL,Escherichia coli [8],31.2%
same,inhibition at 30 µg/mL,Pseudomonas aeruginosa [9],50.1%
same,inhibition at 10 µg/mL,Pseudomonas aeruginosa [10],32.7%
same,inhibition at 3 µg/mL,Pseudomonas aeruginosa [11],35.9%
same,inhibition at 30 µg/mL,Staphylococcus aureus [12],23.1%
same,inhibition at 10 µg/mL,Staphylococcus aureus [13],22.9%
same,inhibition at 3 µg/mL,Staphylococcus aureus [14],30.5%
same,inhibition at 30 µg/mL,Bacillus subtilis [15],14.7%
same,inhibition at 10 µg/mL,Bacillus subtilis [16],17.4%
same,inhibition at 3 µg/mL,Bacillus subtilis [17],24.5%
same,inhibition at 30 µg/mL,[18],20.8%
same,inhibition at 10 µg/mL,[19],7.06%
same,inhibition at 3 µg/mL,[20],18.1%
CC(=O)N1CCC2(C1)CN(c1ccc(N3CCOCC3)c(F)c1)C(=O)O2 (configuration not stated),IC50,Pseudomonas aeruginosa [1],> 100 µg/mL
same,MIC,Pseudomonas aeruginosa [1],> 100 µg/mL
same,IC50,Staphylococcus aureus [2],> 100 µg/mL
same,MIC,Staphylococcus aureus [2],> 100 µg/mL
same,IC50,Escherichia coli [3],> 100 µg/mL
same,MIC,Escherichia coli [3],> 100 µg/mL
same,IC50,Bacillus subtilis [4],> 100 µg/mL
same,MIC,Bacillus subtilis [4],> 100 µg/mL
same,IC50,[5],> 100 µg/mL
same,MIC,[5],> 100 µg/mL
same,inhibition at 30 µg/mL,Escherichia coli [6],46%
same,inhibition at 10 µg/mL,Escherichia coli [7],42%
same,inhibition at 3 µg/mL,Escherichia coli [8],36.2%
same,inhibition at 30 µg/mL,Pseudomonas aeruginosa [9],56.2%
same,inhibition at 10 µg/mL,Pseudomonas aeruginosa [10],48.4%
same,inhibition at 3 µg/mL,Pseudomonas aeruginosa [11],42.8%
same,inhibition at 30 µg/mL,Staphylococcus aureus [12],53.6%
same,inhibition at 10 µg/mL,Staphylococcus aureus [13],50.2%
same,inhibition at 3 µg/mL,Staphylococcus aureus [14],45.2%
same,inhibition at 30 µg/mL,Bacillus subtilis [15],42.2%
same,inhibition at 10 µg/mL,Bacillus subtilis [16],32.2%
same,inhibition at 3 µg/mL,Bacillus subtilis [17],23.9%
same,inhibition at 30 µg/mL,[18],12%
same,inhibition at 10 µg/mL,[19],-8.05%
same,inhibition at 3 µg/mL,[20],19.7%
O=C(NC[C@H]1CN(c2ccc(N3CC4(COC4)C3)c(F)c2)C(=O)O1)Nc1ccc(Cl)cc1,IC50,Pseudomonas aeruginosa [1],> 100 µg/mL
same,MIC,Pseudomonas aeruginosa [1],> 100 µg/mL
same,IC50,Staphylococcus aureus [2],> 100 µg/mL
same,MIC,Staphylococcus aureus [2],> 100 µg/mL
same,IC50,Escherichia coli [3],> 100 µg/mL
same,MIC,Escherichia coli [3],> 100 µg/mL
same,IC50,Bacillus subtilis [4],> 100 µg/mL
same,MIC,Bacillus subtilis [4],> 100 µg/mL
same,IC50,[5],> 100 µg/mL
same,MIC,[5],> 100 µg/mL
same,inhibition at 30 µg/mL,Escherichia coli [6],59.1%
same,inhibition at 10 µg/mL,Escherichia coli [7],31.9%
same,inhibition at 3 µg/mL,Escherichia coli [8],7.39%
same,inhibition at 30 µg/mL,Pseudomonas aeruginosa [9],62%
same,inhibition at 10 µg/mL,Pseudomonas aeruginosa [10],33.1%
same,inhibition at 3 µg/mL,Pseudomonas aeruginosa [11],12.4%
same,inhibition at 30 µg/mL,Staphylococcus aureus [12],62.1%
same,inhibition at 10 µg/mL,Staphylococcus aureus [13],57.3%
same,inhibition at 3 µg/mL,Staphylococcus aureus [14],47.4%
same,inhibition at 30 µg/mL,Bacillus subtilis [15],65%
same,inhibition at 10 µg/mL,Bacillus subtilis [16],63.6%
same,inhibition at 3 µg/mL,Bacillus subtilis [17],59.6%
same,inhibition at 30 µg/mL,[18],30.2%
same,inhibition at 10 µg/mL,[19],25.6%
same,inhibition at 3 µg/mL,[20],6.78%
